One data set addresses Human GLP-1R (Homo sapiens, UniProt P43220). Description: GLP-1R agonist activity, HTRF cAMP detection in 293A GFP-GLP-1R cells. Also on record: Emax: dose or concentration left out as unconfirmed. As to conditions: for Emax: 293A.
Data set [1] is described as follows: Metabolic stability in (human) liver microsomes. Particulars: pH 7.4. (In general: Liver microsomes are vesicles of endoplasmic reticulum, rich in cytochrome P450 enzymes.)
The mark [2] stands for this setting: cAMP level, 293A GFP-GLP-1R cells, 30 min incubation, geometric mean.

Our source for the EC50, Emax and half-life values is patent publication US12668587B2, “Benzimidazolone GLP-1 receptor agonist and use thereof” (HANGZHOU ZHONGMEIHUADONG PHARMACEUTICAL CO., LTD., priority 2020, dated 2026).

As usually defined, the EC50 is the concentration giving half of the maximal effect. Usually Emax stands for the maximal effect, on the per cent scale that the assay sets. For orientation: half-life means how long it takes for the measured level to halve.

Read-outs that look alike come from different tables or passages of the source.

Human GLP-1R, sequence (P43220 24-463): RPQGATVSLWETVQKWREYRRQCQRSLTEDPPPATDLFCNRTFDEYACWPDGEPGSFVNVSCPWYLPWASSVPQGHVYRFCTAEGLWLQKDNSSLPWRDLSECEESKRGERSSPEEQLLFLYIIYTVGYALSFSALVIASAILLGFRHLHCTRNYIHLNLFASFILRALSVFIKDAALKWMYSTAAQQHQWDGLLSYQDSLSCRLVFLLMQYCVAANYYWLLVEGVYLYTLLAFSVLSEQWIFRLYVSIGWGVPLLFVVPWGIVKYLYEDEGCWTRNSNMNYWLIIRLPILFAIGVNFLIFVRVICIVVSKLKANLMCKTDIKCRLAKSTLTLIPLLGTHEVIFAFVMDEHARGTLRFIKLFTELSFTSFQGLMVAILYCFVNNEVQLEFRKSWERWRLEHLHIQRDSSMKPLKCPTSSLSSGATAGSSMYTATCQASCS
Experimental for Human GLP-1R: GLP-1R-mediated agonist activity was determined by cell-based assays using a homogeneous time-resolved fluorescence (i.e., HTRF)-based cAMP detection kit, which measures the level of cAMP in cells. The method was a competitive immunoassay. It enabled direct pharmacological characterization of compounds acting on Gs-coupled receptors in adherent or suspending cells.
The standard curve of native cAMP or unlabeled cAMP produced by cells competed with d2-labeled cAMP red receptors to bind monoclonal anti-cAMP Eu3+ cryptate donors, and the specific signal was inversely proportional to the concentration of cAMP in standard or tested samples.
Human GLP-1R encoding sequence (NCBI reference sequence NP_002053.3) was subcloned into pEGFP-N1 (tsingke), and the cell line stably expressing the receptor was isolated. The expression density of GLP-1R was confirmed by the expression of GFP observed under a fluorescence microscope.
Cells were collected from a T25 tissue culture flask and centrifuged at room temperature at 1000 rpm for 5 minutes. The cell precipitates were then re-suspended in 1 mL of the stimulating buffer. 20 μL sample of cell suspension was counted on a counter STAR IC 1000 to determine the cell viability and the cell count per mL. The remaining cell suspension was then regulated with the stimulating buffer to deliver 2000 living cells per well using a multi-channel pipette. 5 μL of the cell suspension was added to each well of the plate which already contained the compound. The plate was sealed and incubated at 37° C. with 5% CO2 for 30 minutes.
After 30 minutes of incubation, 5 μL of d2-labeled cAMP and 5 μL of anti-cAMP cryptate (both 1: 20 diluted in the cell lysis buffer) were added to each well of the plate. The plate was then incubated at room temperature for 60 minutes, and the changes of HTRF signal were read with Tecan Spark reader: absorbance values at 340 nm (excitation)/at 615 nm and 665 nm (emission). Raw data were converted into nM cAMP by interpolation from the cAMP standard curve, and the effect in percentage was determined relative to the saturated concentration of the complete agonist GLP-17˜37 (400 nM) contained in each plate. Determination of EC50 was performed based on the agonist dose-response curve, which was analyzed using a four-parameter logical dose-response equation with a curve fitting program.
The test data presented the results in the form of a geometric mean (EC50s) based on the number of repetition times.

Turning to `CC(=O)c1ccc(COc2cccc(C3=CCN(Cc4nc5ccc(C(=O)O)cc5n4C[C@@H]4CCO4)CC3)n2)c(F)c1` [Compound 34, (S)-2-((6-((4-acetyl-2-fluorobenzyl)oxy)-3′,6′-dihydro-[2,4′-bipyridin]-1′(2′H)-yl)methyl)-1-(oxetan-2-ylmethyl)-1H-benzo[d]imidazole-6-carboxylic acid], at Human GLP-1R, the EC50 was 0.7 nM and the Emax was 81.5%. In addition, the half-life at 1 μM in data set [1] came out at 14.2 min.

At Human GLP-1R, `CCC(=O)c1ccc(COc2cccc(C3=CCN(Cc4nc5ccc(C(=O)O)cc5n4C[C@@H]4CCO4)CC3)n2)c(F)c1` [Compound 25, (S)-2-((6-((2-fluoro-4-propionylbenzyl)oxy)-3′,6′-dihydro-[2,4′-bipyridin]-1′(2′H)-yl)methyl)-1-(oxetan-2-ylmethyl)-1H-benzo[d]imidazole-6-carboxylic acid] returned an EC50 of 0.95 nM and an Emax of 100%. In data set [1], the half-life at 1 μM turned out to be 25.5 min.

On Human GLP-1R, `CC(=O)c1ccc(COc2cccc(C3CCN(Cc4nc5ccc(C(=O)O)cc5n4C[C@@H]4CCO4)CC3)n2)c(C)c1` [Compound 10, (S)-2-((4-(6-((4-acetyl-2-methylbenzyl)oxy)pyridin-2-yl)piperidin-1-yl)methyl)-1-(oxetan-2-ylmethyl)-1H-benzo[d]imidazole-6-carboxylic acid] gave an EC50 of 1.67 nM and an Emax of 125%.

At Human GLP-1R, `CC(=O)c1ccc(COc2cccc(C3CCN(Cc4nc5ccc(C(=O)O)cc5n4C[C@@H]4CCO4)CC3)n2)cc1F` [Compound 26, (S)-2-((4-(6-((4-acetyl-3-fluorobenzyl)oxy)pyridin-2-yl)piperidin-1-yl)methyl)-1-(oxetan-2-ylmethyl)-1H-benzo[d]imidazole-6-carboxylic acid] returned an EC50 of 4.57 nM and an Emax of 94.4%.

The molecule `CCn1cnc(Cn2c(CN3CCC(c4cccc(OCc5ccc(C(=O)C6CC6)cc5F)n4)CC3)nc3ccc(C(=O)O)cc32)c1` [Compound 35, 2-((4-(6-((4-(cyclopropanecarbonyl)-2-fluorobenzyl)oxy)pyridin-2-yl)piperidin-1-yl)methyl)-1-((1-ethyl-1H-imidazol-4-yl)methyl)-1H-benzo[d]imidazole-6-carboxylic acid] returned an EC50 at Human GLP-1R of 32 nM.

Consider `Cc1cc(COc2cccc(C3CCN(Cc4nc5ccc(C(=O)O)cc5n4C[C@@H]4CCO4)CC3)n2)c(F)cc1C(=O)C1CC1` [Compound 38, (S)-2-((4-(6-((4-(cyclopropanecarbonyl)-2-fluoro-5-methylbenzyl)oxy)pyridin-2-yl)piperidin-1-yl)methyl)-1-(oxetan-2-ylmethyl)-1H-benzo[d]imidazole-6-carboxylic acid], for which, on Human GLP-1R, the EC50 is > 1000 nM and the Emax was 85.9%.

`CON(C)C(=O)c1ccc(COc2cccc(C3CCN(Cc4nc5ccc(C(=O)O)cc5n4C[C@@H]4CCO4)CC3)n2)c(F)c1` [Compound 15, (S)-2-((4-(6-((2-fluoro-4-(methoxy(methyl)carbamoyl)benzyl)oxy)pyridin-2-yl)piperidin-1-yl)methyl)-1-(oxetan-2-ylmethyl)-1H-benzo[d]imidazole-6-carboxylic acid]: at Human GLP-1R, the EC50 was > 1000 nM and the Emax turned out to be 13.6%.

For the molecule `O=C(O)c1ccc2nc(CN3CCC(c4cccc(OCc5ccc(C(=O)C6CCOCC6)cc5F)n4)CC3)n(C[C@@H]3CCO3)c2c1` [Compound 19, (S)-2-((4-(6-((2-fluoro-4-(tetrahydro-2H-pyran-4-carbonyl)benzyl)oxy)pyridin-2-yl)piperidin-1-yl)methyl)-1-(oxetan-2-ylmethyl)-1H-benzo[d]imidazole-6-carboxylic acid], the Emax at Human GLP-1R is 129%. For the same molecule, the EC50 at Human GLP-1R (setting [2]) stood at 145 nM.

Regarding `N#CCC1(Cn2c(CN3CCC(c4cccc(OCc5ccc(C(=O)C6CC6)cc5F)n4)CC3)nc3ccc(C(=O)O)cc32)CC1` [Compound 45], a half-maximal effect on Human GLP-1R (EC50) was put at 0.013 nM.

On Human GLP-1R, `COc1cc(C(=O)C2CC2)ccc1COc1cccc(C2CCN(Cc3nc4ccc(C(=O)O)cc4n3C[C@@H]3CCO3)CC2)n1` [Compound 20, (S)-2-((4-(6-((4-(cyclopropanecarbonyl)-2-methoxybenzyl)oxy)pyridin-2-yl)piperidin-1-yl)methyl)-1-(oxetan-2-ylmethyl)-1H-benzo[d]imidazole-6-carboxylic acid] showed an EC50 of 0.31 nM and an Emax of 120%.

As to `CC(=O)c1cccc(COc2cccc(C3CCN(Cc4nc5ccc(C(=O)O)cc5n4C[C@@H]4CCO4)CC3)n2)c1F` [Compound 17, (S)-2-((4-(6-((3-acetyl-2-fluorobenzyl)oxy)-pyridin-2-yl)piperidin-1-yl)methyl)-1-(oxetan-2-ylmethyl)-1H-benzo[d]imidazole-6-carboxylic acid], on Human GLP-1R, the EC50 came out at 7.68 nM and the Emax was 104%.

For the molecule `Cc1cc(C(=O)C2CC2)ccc1COc1cccc(C2CCN(Cc3nc4ccc(C(=O)O)nc4n3C[C@@H]3CCO3)CC2)n1` [Compound 40, (S)-2-((4-(6-((4-(cyclopropanecarbonyl)-2-methylbenzyl)oxy)pyridin-2-yl)piperidin-1-yl)methyl)-3-(oxetan-2-ylmethyl)-3H-imidazo[4,5-b]pyridine-5-carboxylic acid], on Human GLP-1R, the EC50 came to 0.07 nM and the Emax turned out to be 94.7%.

As to `CC(=O)c1ccc(COc2cccc(C3CCN(Cc4nc5ccc(C(=O)O)cc5n4C[C@@H]4CCO4)CC3)n2)c(OC2CC2)c1` [Compound 31, (S)-2-((4-(6-((4-acetyl-2-cyclopropoxybenzyl)oxy)pyridin-2-yl)piperidin-1-yl)methyl)-1-(oxetan-2-ylmethyl)-1H-benzo[d]imidazole-6-carboxylic acid], at Human GLP-1R, the EC50 is 18.5 nM and the Emax is 75.4%.

At Human GLP-1R, `O=C(O)c1ccc2nc(CC3CCN(c4cccc(OCc5ccc(C(=O)C6CC6)cc5F)n4)CC3)n(C[C@@H]3CCO3)c2c1` [Compound 42, (S)-2-((1-(6-((4-(cyclopropanecarbonyl)-2-fluorobenzyl)oxy)pyridin-2-yl)piperidin-4-yl)methyl)-1-(oxetan-2-ylmethyl)-1H-benzo[d]imidazole-6-carboxylic acid] returned an EC50 of 0.23 nM.

`CNC(=O)c1ccc(COc2cccc(C3CCN(Cc4nc5ccc(C(=O)O)cc5n4C[C@@H]4CCO4)CC3)n2)c(F)c1` [Compound 4, (S)-2-((4-(6-((2-fluoro-4-(methylcarbamoyl)benzyl)oxy)pyridin-2-yl)piperidin-1-yl)methyl)-1-(oxetan-2-ylmethyl)-1H-benzo[d]imidazole-6-carboxylic acid] registered an Emax on Human GLP-1R of 68.6%. Further, the EC50 at Human GLP-1R (setting [2]) stood at 179 nM.

Consider `O=C(O)c1ccc2nc(CN3CCC(c4cccc(OCc5ccc(C(=O)C6CC6)cc5F)n4)CC3)n(C[C@@H]3CCO3)c2n1` [Compound 33, (S)-2-((4-(6-((4-(cyclopropanecarbonyl)-2-fluorobenzyl)oxy)pyridin-2-yl)piperidin-1-yl)methyl)-3-(oxetan-2-ylmethyl)-3H-imidazo[4,5-b]pyridine-5-carboxylic acid], for which, on Human GLP-1R, the EC50 was 1.59 nM and the Emax is 92.9%.

Consider `COc1cc(C(=O)C(C)C)ccc1COc1cccc(C2CCN(Cc3nc4ccc(C(=O)O)cc4n3C[C@@H]3CCO3)CC2)n1` [Compound 32, (S)-2-((4-(6-((4-isobutyryl-2-methoxybenzyl)oxy)pyridin-2-yl)piperidin-1-yl)methyl)-1-(oxetan-2-ylmethyl)-1H-benzo[d]imidazole-6-carboxylic acid], for which, at Human GLP-1R, it took 416 nM to reach a half-maximal effect (EC50) and the maximal response (Emax) stood at 102%.

`NC(=O)c1ccc(COc2cccc(C3CCN(Cc4nc5ccc(C(=O)O)cc5n4C[C@@H]4CCO4)CC3)n2)c(F)c1` [Compound 3, (S)-2-((4-(6-((4-carbamoyl-2-fluorobenzyl)oxy)pyridin-2-yl)piperidin-1-yl)methyl)-1-(oxetan-2-ylmethyl)-1H-benzo[d]imidazole-6-carboxylic acid] registered an Emax at Human GLP-1R of 54.5%. This molecule also returned an EC50 at Human GLP-1R (setting [2]) of 75.9 nM.

`CN1CCC(C(=O)c2ccc(COc3cccc(C4CCN(Cc5nc6ccc(C(=O)O)cc6n5C[C@@H]5CCO5)CC4)n3)c(F)c2)CC1` [Compound 29, (S)-2-((4-(6-((2-fluoro-4-(1-methylpiperidin-4-carbonyl)benzyl)oxy)pyridin-2-yl)piperidin-1-yl)methyl)-1-(oxetan-2-ylmethyl)-1H-benzo[d]imidazole-6-carboxylic acid] registered a maximal response (Emax) at Human GLP-1R of 7.12%.

Consider `C[C@H]1CN(c2cccc(OCc3ccc(C(=O)C4CC4)cc3F)n2)CCN1Cc1nc2ccc(C(=O)O)cc2n1C[C@@H]1CCO1` [Compound 39, 2-(((S)-4-(6-((4-(cyclopropanecarbonyl)-2-fluorobenzyl)oxy)pyridin-2-yl)-2-methylpiperazin-1-yl)methyl)-1-(((S)-oxetan-2-yl)methyl)-1H-benzo[d]imidazole-6-carboxylic acid], for which, on Human GLP-1R, the response was half-maximal at 3.38 nM (EC50) and the Emax worked out at 87.9%.

On Human GLP-1R, `CC(=O)c1ccc(COc2cccc(N3CCN(Cc4nc5ccc(C(=O)O)cc5n4C[C@@H]4CCO4)[C@@H](C)C3)n2)c(F)c1` [Compound 28, 2-(((S)-4-(6-((4-acetyl-2-fluorobenzyl)oxy)pyridin-2-yl)-2-methylpiperazin-1-yl)methyl)-1-(((S)-oxetan-2-yl)methyl)-1H-benzo[d]imidazole-6-carboxylic acid] returned an EC50 of 0.3 nM and an Emax of 95.2%.

For the molecule `CC(C)C(=O)c1ccc(COc2cccc(C3CCN(Cc4nc5ccc(C(=O)O)cc5n4C[C@@H]4CCO4)CC3)n2)c(F)c1` [Compound 43, (S)-2-((4-(6-((2-fluoro-4-isobutyrylbenzyl)oxy)pyridin-2-yl)piperidin-1-yl)methyl)-1-(oxetan-2-ylmethyl)-1H-benzo[d]imidazole-6-carboxylic acid], the EC50 on Human GLP-1R (setting [2]) came to 1.4 nM.
